# Patent US11420947B2, “(S)-n-hydroxy-2-(2-(4-methoxyphenyl)butanamido)thiazole-5-carboxamide and pharmaceutically acceptable salts thereof” (TRANSLATIONAL DRUG DEVELOPMENT, LLC, priority 2018, dated 2022)
# What was measured:
# Assay in all cases: CellTiter-Glo cell viability assay
# Format in all cases: cell-based
# N87 = test system: N87
# Method: (§1) Cell viability in the presence of varying concentrations of the above listed compounds at different time points was used to assess cytotoxicity and the effect of the compounds on cell proliferation.
# (§2) Cell viability was measured by the CellTiter-Glo® cell viability assay from Promega (Madison, Wis.). The CellTiter-Glo® Luminescent Cell Viability Assay is a homogeneous method to determine the number of viable cells in culture based on quantitation of the ATP present, which signals the presence of metabolically active cells. Following treatment, CellTiter-Glo® is added to treatment wells and incubated at 37° C. luminescence values were measured at using a Molecular Devices Spectramax microplate reader
# (§3) Cells were grown to 70% confluency, trypsinized, counted, and seeded in 96 well flat-bottom plates at a final concentration of 2.5×10^3-5×10^3 cells/well (Day 0). Cells were allowed to incubate in growth media for 24 hours. Treatment with the test agents or standard agents began on Day 1 and continued for 72 hours. At the 72-hour timepoint, treatment containing media was removed. Viable cell numbers are quantified by the CellTiter-Glo® cell viability assay as described above. Results from these studies were used to calculate an IC50 value (concentration of drug that inhibits cell growth by 50 percent of control) for each compound.
# (§4) For single agent and combination studies, data from each experiment was collected and expressed as % Cell Growth using the following calculation: % Cell Growth=(ftest/fvehicle)×100
# (§5) Where test is the fluorescence of the tested sample, and fvehicle is the fluorescence of the vehicle in which the drug is dissolved. Dose response graphs and IC50 values were generated using Prism 6 software (GraphPad) using the following equation: Y=(Top-Bottom)/(1+10^((logIC^50^-X)-HillSlope))
# Panc-1 = test system: Panc-1
# Method: as §1, §2, §3, §4, §5
# Nalm-6 = test system: Nalm-6
# Method: as §1, §2, §3, §4, §5
# MDA-MB-231 = test system: MDA-MB-231
# Method: as §1, §2, §3, §4, §5
# SN12CCP = test system: SN12CCP
# Method: as §1, §2, §3, §4, §5
# Cal-27 = test system: Cal-27
# Method: as §1, §2, §3, §4, §5
# MV411 = test system: MV411
# Method: as §1, §2, §3, §4, §5
# SNU-1 = conditions: ratio of IC50, SNU-1
# Method: as §1, §2, §3, §4, §5
# A375 = test system: A375
# Method: as §1, §2, §3, §4, §5
# KLE = test system: KLE
# Method: as §1, §2, §3, §4, §5
# THP-1 = test system: THP-1
# Method: as §1, §2, §3, §4, §5
# Hs695T = test system: Hs695T
# Method: as §1, §2, §3, §4, §5
# MeWo = test system: MeWo
# Method: as §1, §2, §3, §4, §5
# MCF7 = test system: MCF7
# Method: as §1, §2, §3, §4, §5
# H1650 = test system: H1650
# Method: as §1, §2, §3, §4, §5
# Capan-2 = test system: Capan-2
# Method: as §1, §2, §3, §4, §5
# ACHN = test system: ACHN
# Method: as §1, §2, §3, §4, §5
# HCC70 = test system: HCC70
# Method: as §1, §2, §3, §4, §5
# G402 = test system: G402
# Method: as §1, §2, §3, §4, §5
# SiHa = test system: SiHa
# Method: as §1, §2, §3, §4, §5
# MFE296 = test system: MFE296
# Method: as §1, §2, §3, §4, §5
# MiaPaCa = test system: MiaPaCa
# Method: as §1, §2, §3, §4, §5
# HepG2 = test system: HepG2
# Method: as §1, §2, §3, §4, §5
# A498 = test system: A498
# Method: as §1, §2, §3, §4, §5
# MDA-MB-157 = test system: MDA-MB-157
# Method: as §1, §2, §3, §4, §5
structure (smiles),measurement,setting,value
"CC[C@H](C(=O)Nc1ncc(C(=O)NO)s1)c1ccc(OC)cc1 [#1a, (S)—N-hydroxy-2-(2-(4-methoxyphenyl)butanamido)thiazole-5-carboxamide]",IC50,"N87; N87, GASTRIC, Carcinoma, 72 hours",18 nM
same,#1/#1a,"N87; ratio of IC50, N87",6.67
same,#1b/#1a,"N87; ratio of IC50, N87",18.39
same,IC50,"Panc-1; Homo sapiens, Panc-1, PANCREAS, Pancreatic, 72 hours",302 nM
same,#1/#1a,"Panc-1; ratio of IC50, Panc-1",2.09
same,#1b/#1a,"Panc-1; ratio of IC50, Panc-1",8.85
same,IC50,"Nalm-6; Homo sapiens, Nalm-6, HEMATOPIETIC, ALL, 72 hours",11 nM
same,#1/#1a,"Nalm-6; ratio of IC50, Nalm-6",2.36
same,#1b/#1a,"Nalm-6; ratio of IC50, Nalm-6",8.27
same,IC50,"MDA-MB-231; Homo sapiens, MDA-MB-231, BREAST, TNBC, 72 hours",62 nM
same,#1/#1a,"MDA-MB-231; ratio of IC50, MDA-MB-231",1.82
same,#1b/#1a,"MDA-MB-231; ratio of IC50, MDA-MB-231",10.42
same,IC50,"SN12CCP; SN12CCP, RENAL, RCC, 72 hours",55 nM
same,#1/#1a,"SN12CCP; ratio of IC50, SN12CCP",2.29
same,#1b/#1a,"SN12CCP; ratio of IC50, SN12CCP",7.45
same,IC50,"Cal-27; Homo sapiens, Cal-27, H&N SQUAMOUS CELL, Tongue, 72 hours",45 nM
same,#1/#1a,"Cal-27; ratio of IC50, Cal-27",4.78
same,#1b/#1a,"Cal-27; ratio of IC50, Cal-27",10.33
same,IC50,"MV411; Homo sapiens, MV4-11, MV411, HEMATOPIETIC, AML, 72 hours",6 nM
same,#1/#1a,"MV411; ratio of IC50, MV411",1.17
same,#1b/#1a,"MV411; ratio of IC50, MV411",3.83
same,#1/#1a,SNU-1,3.86
same,#1b/#1a,SNU-1,10.63
same,IC50,"A375; Homo sapiens, A-375, A375, MELANOMA, Malignant Melanoma, 72 hours",32 nM
same,#1/#1a,"A375; ratio of IC50, A375",8.41
same,#1b/#1a,"A375; ratio of IC50, A375",20.34
same,IC50,"KLE; Homo sapiens, KLE, ENDOMETRIAL, 72 hours",106 nM
same,#1/#1a,"KLE; ratio of IC50, KLE",2.03
same,#1b/#1a,"KLE; ratio of IC50, KLE",8.03
same,IC50,"THP-1; Homo sapiens, THP-1, HEMATOPIETIC, AML, 72 hours",32 nM
same,#1/#1a,"THP-1; ratio of IC50, THP-1",2.03
same,#1b/#1a,"THP-1; ratio of IC50, THP-1",6.13
same,IC50,"Hs695T; Homo sapiens, Hs 695T, Hs695T, MELANOMA, LN Met, 72 hours",52 nM
same,#1/#1a,"Hs695T; ratio of IC50, Hs695T",7.15
same,#1b/#1a,"Hs695T; ratio of IC50, Hs695T",18.65
same,IC50,"MeWo; Homo sapiens, MeWo, MELANOMA, LN Met, 72 hours",83 nM
same,#1/#1a,"MeWo; ratio of IC50, MeWo",1.9
same,#1b/#1a,"MeWo; ratio of IC50, MeWo",7.37
same,IC50,"MCF7; Homo sapiens, MCF7, BREAST, ER + BCC, 72 hours",21 nM
same,#1/#1a,"MCF7; ratio of IC50, MCF7",1.86
same,#1b/#1a,"MCF7; ratio of IC50, MCF7",7.52
same,IC50,"H1650; Homo sapiens, NCI-H1650, H1650, LUNG, NSCLC, 72 hours",174 nM
same,#1/#1a,"H1650; ratio of IC50, H1650",2.09
same,#1b/#1a,"H1650; ratio of IC50, H1650",6.91
same,IC50,"Capan-2; Homo sapiens, Capan-2, PANCREAS, Pancreatic, 72 hours",136 nM
same,#1/#1a,"Capan-2; ratio of IC50, Capan-2",2.67
same,#1b/#1a,"Capan-2; ratio of IC50, Capan-2",7.13
same,IC50,"ACHN; Homo sapiens, ACHN, RENAL, RCC, 72 hours",78 nM
same,#1/#1a,"ACHN; ratio of IC50, ACHN",2.94
same,#1b/#1a,"ACHN; ratio of IC50, ACHN",9.44
same,IC50,"HCC70; Homo sapiens, HCC70, BREAST, TNBC, 72 hours",52 nM
same,#1/#1a,"HCC70; ratio of IC50, HCC70",1.92
same,#1b/#1a,"HCC70; ratio of IC50, HCC70",6.56
same,IC50,"G402; Homo sapiens, G-402, G402, RENAL, Renal leiomyoblastoma, 72 hours",65 nM
same,#1/#1a,"G402; ratio of IC50, G402",1.57
same,#1b/#1a,"G402; ratio of IC50, G402",7.71
same,IC50,"SiHa; Homo sapiens, SiHa, CERVICAL-SQUAMOUS CELL, 72 hours",307 nM
same,#1/#1a,"SiHa; ratio of IC50, SiHa",1.01
same,#1b/#1a,"SiHa; ratio of IC50, SiHa",8.91
same,IC50,"MFE296; Homo sapiens, MFE-296, MFE296, ENDOMETRIAL, Endometrial, 72 hours",35 nM
same,#1/#1a,"MFE296; ratio of IC50, MFE296",1.49
same,#1b/#1a,"MFE296; ratio of IC50, MFE296",5.83
same,IC50,"MiaPaCa; Homo sapiens, MIA PaCa-2, MiaPaCa, PANCREAS, Pancreatic, 72 hours",35 nM
same,#1/#1a,"MiaPaCa; ratio of IC50, MiaPaCa",1.46
same,#1b/#1a,"MiaPaCa; ratio of IC50, MiaPaCa",8.26
same,IC50,"HepG2; Homo sapiens, HepG2, LIVER, HCC, 72 hours",76 nM
same,#1/#1a,"HepG2; ratio of IC50, HepG2",2.83
same,#1b/#1a,"HepG2; ratio of IC50, HepG2",8.3
same,IC50,"A498; Homo sapiens, A498, RENAL, RCC-VHL mut, 72 hours",47 nM
same,#1/#1a,"A498; ratio of IC50, A498",1.34
same,#1b/#1a,"A498; ratio of IC50, A498",7.49
same,IC50,"MDA-MB-157; Homo sapiens, MDA-MB-157, BREAST, Medullary Carcinoma, 72 hours",89 nM
same,#1/#1a,"MDA-MB-157; ratio of IC50, MDA-MB-157",1.9
same,#1b/#1a,"MDA-MB-157; ratio of IC50, MDA-MB-157",6.27
